Earlier results on two compounds are cited in patent publication US20220023398A1, “COMPOSITIONS AND METHODS FOR TREATING THYROID DISEASE” (Script Essentials, LLC, priority 2015, published 2022).

For series [1] the following is noted: supplementation, even in selenium sufficient patients.
For series [2] the following is noted: after oral supplementation.
Setting [3] is: participants with low T3, normal T4.

Turning to `[Se]` [selenium], the “thyroid peroxidase (TPO) antibody levels in the blood” value in series [1] is on record as “reduced”.

As for `O=S(=O)([O-])[O-].[Zn+2]` [zinc sulfate], in series [2] (setting [3]), the TSH result is on record as “normalized” and the “reverse T3 (rT3)” value is “decreased”. For the same compound, the “levels of T3” value in series [2] (participants with low T3, normal T4, mild to moderate zinc deficiency) is reported as “normalized”.
